pIC50: −log10 of the molar value. Marks after values point to notes of the source that are not given here.
Experiments:
Assay type in all cases: binding, rabbit
[1] = tested on: AAMU-Ab; experiment: Competitive antigen ELISA, cross-reactivity of AAMU-Ab; conditions: for % Cross-Reaction AAMU-Ab: competitive antigen ELISA, 0 = absence of inhibition or inhibition no higher than 40% at the highest concentration tested (5×10^−3 M)
Method: (§1) Competitive Antigen ELISA
(§2) Buffers and water without additives are filtered through millipore filters and kept for 1 week. BSA, antibodies, Tween™ 20 and horse radish peroxidase conjugates are added to these buffers and water just prior to use. Urine samples are usually collected 4 hours after drinking a cup of coffee (instant or brewed with approximately 100 mg of caffeine per cup) and stored at −80° C. The urine samples are diluted 10 times with sodium phosphate buffer (620 mosm, pH 7.50) and are subsequently diluted with water to give concentrations of AAMU and 1X no higher than 3×10^−6 M in the ELISA. All the pipettings are done with an eight-channel pipette, except those of the antibody and sample solutions. Starting with the last well, 100 μL of a carbonate buffer (100 mM, pH 9.6) containing 2.5 μg mL-1 antibodies are added to each well. After 90 min. at room temperature, the wells are washed three times with 100 mL of TPB: isotonic sodium phosphate buffer (310 mosm, pH 7.50) containing 0.05% Tween™ 20.
(§3) After the initial wash, unoccupied sites are blocked by incubation for 90 min. at room temperature with 100 μL TBP containing 3% BSA. The wells are washed four times with 100 […] TPB. […] The microplate is gently shaken with an orbital shaker at room temperature for 3-4 hours. The wells are washed three times with 100 μL TPB containing 1% BSA and three times with water containing 0.05% Tween™ 20. To the washed plate is added 150 μL of a substrate buffer composed of citric acid (25 mM) and sodium phosphate dibasic buffer (50 mM, pH 5.0) containing 0.06% hydrogen peroxide and 0.04% o-phenylenediamine hydrochloride.
as §2, with “were” for “are”, “They were” for “The urine samples are”, “mL^−1” for “mL-1”, “was pipetted.” for “are added to each well.”, “μL” for “mL”
(§4) After the initial wash, unoccupied sites were blocked by incubation for 90 min. at room temperature with 100 μL TBP containing 3% BSA. The wells were washed four times with 100 μL TPB. […] The microplate was gently shaken with an orbital shaker at room temperature for 3-4 hours. The wells were washed three times with 100 μL with TPB containing 1% BSA and three times with water containing 0.05% Tween™ 20. To the washed plate was added 150 μL of a substrate buffer composed of citric acid (25 mM) and sodium phosphate dibasic buffer (50 mM, pH 5.0) containing 0.06% hydrogen peroxide and 0.04% o-phenylenediamine hydrochloride. After 20 min. at room temperature with shaking, the reaction was stopped with 50 μL of 2.5 N HCl.
(§5) The cross reactivities of AAMU-Ab and 1X-Ab were tested using a wide variety of caffeine metabolites and structural analogs (Table 2 below).

[2] = tested on: 1X-Ab; experiment: Competitive antigen ELISA, cross-reactivity of 1X-Ab; conditions: for % Cross-Reaction 1X-Ab: competitive antigen ELISA, 0 = absence of inhibition or inhibition no higher than 40% at the highest concentration tested (5×10^−3 M)
Method: as §1, §2, §3
as §2, with “were” for “are”, “They were” for “The urine samples are”, “mL^−1” for “mL-1”, “was pipetted.” for “are added to each well.”, “μL” for “mL”
as §4, §5

[3] = tested on: Caffeine-Ab; experiment: Competitive antigen ELISA, antibody specificity of caffeine-Ab; conditions: hypothesized ideal antibody specificity; 0 = no inhibition or no higher than 40% at 5×10^−3 M
Method: as §1
(§6) BSA, antibodies, Tween™ 20 and horse radish peroxidase are added to buffers and water just prior to use. Urine samples are usually collected four hours after drinking a cup of coffee (instant or brewed with approximately 100 mg of caffeine per cup) and stored at −20° C. as 1-mL aliquots in 1.5-mL microtubes. For the ELISA, the urine samples are diluted with isotonic sodium phosphate buffer, pH 7.5 (310 mosM) to give concentrations of caffeine, 1.7-DMX and 1,7-DMU no higher than 3×10^−6 M in the microtiter plate wells. Wells of the ELISA plate are washed with a Nunc-Immuno wash 12 washer. Sixteen milliliters of a solution of 6.6 μg ml^−1 of isolated IgG antibodies is prepared in a 100 mM sodium carbonate buffer, pH 9.6, and 150 μL of this solution is pipetted in each well of a microtiter plate using a eight channel pipet (Brinkmann Transferpette™-8 50-200 μL) and 200 μL Flex tips from Brinkmann). After coating the wells with antibodies at 4° C. for 20 hours, the wells are washed 3 times with the isotonic sodium phosphate buffer containing 0.05% Tween™ 20 (IPBT) and properly drained by inverting the plate and absorbing the liquid on to a piece of paper towel. Thirty milliliters of a solution of a IPBT solution containing 1% BSA is prepared and 150 μL of this solution is pipetted in each well using a eight channel pipet (Brinkmann Transferpet-te™-8 50-200 μL) and 200 μL yellow tips (Sarstedt yellow tips for P200 Gilson Pipetman). After 3 hours at room temperature, the wells are washed 3 times with IPBT solution and drained. Samples of 400 μL for determination of caffeine, 1,7-DMX and 1,7-DMU are prepared in 1.5-mL microtubes using Sarstedt yellow tips and a P200 Gilson Pipetman. Then, 200 μL of each sample are pipetted in duplicate in a Falcon 96-well microtest tissue culture plate according to the pattern shown in FIG. 23, using Sarstedt yellow tips and a P200 Gilson Pipetman. Using an eight channel pipet (Brinkmann Transferpette™-8 50-200 μL) and changing the tips of the eight channel pipet (200 μL Flex tips from Brinkmann) at each row, 150 μL of samples are transferred in the corresponding wells of a 96-well ELISA microtiter plate coated with antibodies. After the addition of the samples, the microtiter plates are covered and left standing at room temperature for 2 h. While the plate is left standing the substrate buffer without the hydrogen peroxide and o-phenylenediamine hydrochloride is prepared (25 mM citric acid and 50 mM sodium phosphate dibasic buffer, pH 5.0). The microtiter plate is washed 3 times with the IPBT solution and 3 times with a 0.05% Tween 20 solution and drained. Then, 50 […] of hydrogen peroxide and 40 mg of o-phenylenediamine are added to the substrate buffer. One hundred fifty microliters (150 μL) of the substrate buffer solution is then added to each well using a eight channel pipet (Brinkmann Transferpette™-8 50-200 μL) and 200 μL Flex tips (Brinkmann). The microtiter plate is covered and shaken for 25-30 min at room temperature and the enzymatic reaction is stopped by adding 50 μL/well of a 2.5 N HCl solution using an eight channel pipet (Brinkmann Transferpette™-8 50-200 μL) and 200 μL Flex tips (Brinkmann).

[4] = tested on: 1,7-DMX-Ab; experiment: Competitive antigen ELISA, antibody specificity of 1,7-DMX-Ab; conditions: hypothesized ideal antibody specificity; 0 = no inhibition or no higher than 40% at 5×10^−3 M
Method: as §1, §6

[5] = tested on: 1,7-DMU-Ab; experiment: Competitive antigen ELISA, antibody specificity of 1,7-DMU-Ab; conditions: hypothesized ideal antibody specificity; 0 = no inhibition or no higher than 40% at 5×10^−3 M
Method: as §1, §6

| Compound | % Cross-Reaction AAMU-Ab [1] [%] | % Cross-Reaction 1X-Ab [2] [%] | % Cross-reaction Caffeine-Ab [3] [%] | % Cross-reaction 1,7-DMX-Ab [4] | % Cross-reaction 1,7-DMU-Ab [5] [%] | pIC50 ([2]; read-out: concentration required for 50% inhibition in the competitive antigen ELISA, 1X-Ab) | pIC50 ([1]; read-out: concentration required for 50% inhibition in the competitive antigen ELISA, AAMU-Ab) |
| --- | --- | --- | --- | --- | --- | --- | --- |
| Cn1c(=O)c2c(ncn2C)n(C)c1=O [1,3,7-Trimethyl Xanthine (Caffeine), 1,3,7-trimethylxanthine] | 0 | 0 | 100 | 0^a % | 0 | – | – |
| Cn1c(=O)c2c([nH]c(=O)n2C)n(C)c1=O [1,3,7-Trimethyluric acid] | – | – | 0 | 0% | 0 | – | – |
| Cn1c(=O)c2[nH]cnc2n(C)c1=O [1,3-Dimethyl Xanthine (Theophylline), 1,3-Dimethyl Xanthine] | 0 | 0.2 | 0 | 0% | 0 | – | – |
| Cn1c(=O)c2[nH]c(=O)[nH]c2n(C)c1=O [1,3-Dimethyluric acid] | – | – | 0 | 0% | 0 | – | – |
| Cn1c(=O)[nH]c2ncn(C)c2c1=O [1,7-Dimethyl Xanthine (Paraxanthine), 1,7-dimethylxanthine] | 0 | 0.5 | 0 | 100% | 0 | – | – |
| Cn1c(=O)[nH]c2[nH]c(=O)n(C)c2c1=O [1,7-Dimethyluric acid, 1,7-dimethyluric acid] | 0 | 0 | 0 | 0% | 100 | – | – |
| Cn1c(=O)[nH]c2nc[nH]c2c1=O [1-Methyl Xanthine (1X), 1-methylxanthine] | 0 | 100 | 0 | 0% | 0 | 5.00 | – |
| Cn1c(=O)[nH]c2[nH]c(=O)[nH]c2c1=O [1-Methyluric acid, 1-methyluric acid] | 0 | 11 | 0 | 0% | 0 | – | – |
| Cn1cnc2c1c(=O)[nH]c(=O)n2C [3,7-Dimethyl Xanthine (Theobromine), 3,7-Dimethyl Xanthine] | 0 | 0 | 0 | 0% | 0 | – | – |
| Cn1c(=O)[nH]c(=O)c2c1[nH]c(=O)n2C [3,7-Dimethyluric acid] | – | – | 0 | 0% | 0 | – | – |
| Cn1c(=O)[nH]c(=O)c2[nH]cnc21 [3-Methyl Xanthine] | 0 | 0 | 0 | 0% | 0 | – | – |
| Cn1c(=O)[nH]c(=O)c2[nH]c(=O)[nH]c21 [3-Methyluric acid] | – | – | 0 | 0% | 0 | – | – |
| CC(=O)Nc1c(N)n(C)c(=O)n(C)c1=O [5-Acetamino-6-amino-1,3-dimethyluracil] | 0 | 0 | 0 | 0% | 0 | – | – |
| CC(=O)Nc1c(N)[nH]c(=O)[nH]c1=O [5-Acetamino-6-amino-uracil] | 0.6 | 0 | 0 | 0% | 0 | – | – |
| CC(=O)Nc1c(N)n(C)c(=O)[nH]c1=O [5-acetamino-6-amino-1-methyluracil] | 100 | 0 | 0 | 0% | 0 | – | 5.82 |
| Cn1cnc2[nH]c(=O)[nH]c(=O)c21 [7-Methyl Xanthine] | 0 | 0 | 0 | 0% | 0 | – | – |
| Cn1c(=O)[nH]c2[nH]c(=O)[nH]c(=O)c21 [7-Methyluric acid] | – | – | 0 | 0% | 0 | – | – |
| Cc1nc2[nH]c(=O)[nH]c(=O)c2[nH]1 [8-Methyl Xanthine] | 0 | 0 | 0 | 0% | 0 | – | – |
| Nc1nc2nc[nH]c2c(=O)[nH]1 [Guanine] | 0 | 0 | 0 | 0% | 0 | – | – |
| O=c1[nH]cnc2nc[nH]c12 [Hypoxanthine] | 0 | 0 | 0 | 0% | 0 | – | – |
| O=c1cc[nH]c(=O)[nH]1 [Uracil] | 0 | 0 | 0 | 0% | 0 | – | – |

Source: patent US20030190671A1, “Use of metabolic phenotyping in individualized treatment with amonafide” (McGill University, priority 2001, published 2003)
